Source: US20120088660A1, “Antifungal 1,2,4-triazolyl Derivatives” (BASF SE, priority 2009, published 2012)

System: Phakopsora pachyrhizi
Assay: Curative control of soy bean rust on soy beans (greenhouse test)
Format: in vivo
Conditions: 300 ppm aqueous preparation sprayed to run-off after inoculation (curative); soy bean seedlings; assessed after 14 days; untreated plants 60% infected
Description: The spray soultions were prepared in several steps: The stock solution were prepared by adding a mixture of acetone and/or dimethylsulfoxide and the wetting agent/emulsifier Wettol, which is based on ethoxylated alkylphenoles, in a relation (volume) solvent-emulsifier of 99 to 1 to 25 mg of the compound to give a total of 10 ml. Water was then added to total volume of 100 ml. This stock solution was diluted with the described solvent-emulsifier-water mixture to the given concentration. 1. Curative Control of Soy Bean Rust on Soy Beans Caused by Phakopsora Pachyrhizi Leaves of pot-grown soy bean seedlings were inoculated with spores of Phakopsora pachyrhizi. To ensure the success of the artificial inoculation, the plants were transferred to a humid chamber with a relative humidity of about 95% and 20 to 24° C. for 24 h. The next day the plants were cultivated for 2 days in a greenhouse chamber at 23-27° C. and a relative humidity between 60 and 80%. Then the plants were sprayed to run-off with an aqueous suspension, containing the concentration of active ingredient or their mixture as described below. The plants were allowed to air-dry. Then the trial plants were cultivated for 14 days in a greenhouse chamber at 23-27° C. and a relative humidity between 60 and 80%. The extent of fungal attack on the leaves was visually assessed as % diseased leaf area.

SMILES	infection (extent of fungal attack on the leaves, visually assessed as % diseased leaf area)
CC(C)(C)C(O)(CCCCOc1cccc(Cl)c1)Cn1nc[nH]c1=S (stereo not drawn) [Example 6, 1-[2-tert-Butyl-6-(3-chlorophenoxy)-2-hydroxyhexyl]-1H-1,2,4-triazole-5(4H)-thione]	0%
Cc1ccc(OCCCCCC(O)(Cn2nc[nH]c2=S)C(C)(C)C)cc1 (stereo not drawn) [Example 20, 1-[2-tert-butyl-7-(4-methylphenoxy)-2-hydroxyheptyl]-1H-1,2,4-triazole-5(4H)-thione]	0%
CC(C)(C)C(O)(CCCCOc1ccc(Cl)cc1Cl)Cn1nc[nH]c1=S (stereo not drawn) [Example 5]	0%
CC(C)(C)C(O)(CCCCCOc1ccc(Cl)cc1)Cn1nc[nH]c1=S (stereo not drawn) [Example 18, 1-[2-tert-butyl-7-(4-chlorophenoxy)-2-hydroxyheptyl]-1H-1,2,4-triazole-5(4H)-thione]	0%
CC(C)(C)C(O)(CCCCCOc1ccc(F)cc1F)Cn1nc[nH]c1=S (stereo not drawn) [Example 13, 1-[2-tert-butyl-7-(2,4-difluorophenoxy)-2-hydroxyheptyl]-1H-1,2,4-triazole-5(4H)-thione]	0%
CC(C)(C)C(O)(CCCCOc1ccccc1F)Cn1nc[nH]c1=S (stereo not drawn) [Example 2, 1-[2-tert-Butyl-6-(2-fluorophenoxy)-2-hydroxyhexyl]-1H-1,2,4-triazole-5(4H)-thione]	0%
CC(C)(C)C(O)(CCCCOc1ccc(F)cc1F)Cn1nc[nH]c1=S (stereo not drawn) [Example 3, 1-[2-tert-Butyl-6-(2,4-difluorophenoxy)-2-hydroxyhexyl]-1H-1,2,4-triazole-5(4H)-thione]	0%
CC(C)(C)C(O)(CCCCCOc1ccccc1Cl)Cn1nc[nH]c1=S (stereo not drawn) [Example 16, 1-[2-tert-butyl-7-(2-chlorophenoxy)-2-hydroxyheptyl]-1H-1,2,4-triazole-5(4H)-thione]	0%
CC(C)(C)C(O)(CCCCOc1ccccc1Cl)Cn1nc[nH]c1=S (stereo not drawn) [Example 4, 1-[2-tert-Butyl-6-(2-chlorophenoxy)-2-hydroxyhexyl]-1H-1,2,4-triazole-5(4H)-thione]	0%
CC(C)(C)C(O)(CCCCOc1ccccc1)Cn1nc[nH]c1=S (stereo not drawn) [Example 1, 1-(2-tert-Butyl-2-hydroxy-6-phenoxyhexyl)-1H-1,2,4-triazole-5(4H)-thione]	0%
CC(C)(C)C(O)(CCCCCOc1ccccc1F)Cn1nc[nH]c1=S (stereo not drawn) [Example 11, 1-[2-tert-butyl-7-(2-fluorophenoxy)-2-hydroxyheptyl]-1H-1,2,4-triazole-5(4H)-thione]	0%
CC(C)(C)C(O)(CCCCCOc1cccc(Cl)c1)Cn1nc[nH]c1=S (stereo not drawn) [Example 17, 1-[2-tert-butyl-7-(3-chlorophenoxy)-2-hydroxyheptyl]-1H-1,2,4-triazole-5(4H)-thione]	0%
